Experiments:
Cavia porcellus [1] = assay: Cardiotoxicity in guinea pig assessed as effect on QTc interval time at 5 mg/kg, ip measured after 30 mins by ECG analysis (reference value: […] to […] milliseconds); type: toxicity, organism-based; settings: in vivo, 0.5 h
Rattus norvegicus [2] = assay: Cardiotoxicity in Wistar rat assessed as effect on blood pressure at 2 to 5 mg/kg, iv; type: toxicity, organism-based; settings: in vivo
Cavia porcellus [3] = assay: Cardiotoxicity in guinea pig assessed as effect on QTc interval time at 5 mg/kg, ip measured after 60 mins by ECG analysis (reference value: […] to […] milliseconds); type: toxicity, organism-based; settings: in vivo, 1 h
Cavia porcellus [4] = assay: Cardiotoxicity in guinea pig assessed as effect on QTc interval time at 5 mg/kg, ip measured after 10 mins by ECG analysis (reference value: […] to […] milliseconds); type: toxicity, organism-based; settings: in vivo
Cavia porcellus [5] = assay: Cardiotoxicity in guinea pig assessed as effect on QTc interval time at 5 mg/kg, ip measured after 80 mins by ECG analysis (reference value: […] to […] milliseconds); type: toxicity, organism-based; settings: in vivo
[6] = target: Voltage-gated inwardly rectifying potassium channel KCNH2 (Homo sapiens, UniProt Q12809); assay: Inhibition of human ERG expressed in CHOK1 cells at 10 to 50 uM by whole-cell patch clamp method; type: cell-based
Chain of Voltage-gated inwardly rectifying potassium channel KCNH2 (Q12809 whole entry): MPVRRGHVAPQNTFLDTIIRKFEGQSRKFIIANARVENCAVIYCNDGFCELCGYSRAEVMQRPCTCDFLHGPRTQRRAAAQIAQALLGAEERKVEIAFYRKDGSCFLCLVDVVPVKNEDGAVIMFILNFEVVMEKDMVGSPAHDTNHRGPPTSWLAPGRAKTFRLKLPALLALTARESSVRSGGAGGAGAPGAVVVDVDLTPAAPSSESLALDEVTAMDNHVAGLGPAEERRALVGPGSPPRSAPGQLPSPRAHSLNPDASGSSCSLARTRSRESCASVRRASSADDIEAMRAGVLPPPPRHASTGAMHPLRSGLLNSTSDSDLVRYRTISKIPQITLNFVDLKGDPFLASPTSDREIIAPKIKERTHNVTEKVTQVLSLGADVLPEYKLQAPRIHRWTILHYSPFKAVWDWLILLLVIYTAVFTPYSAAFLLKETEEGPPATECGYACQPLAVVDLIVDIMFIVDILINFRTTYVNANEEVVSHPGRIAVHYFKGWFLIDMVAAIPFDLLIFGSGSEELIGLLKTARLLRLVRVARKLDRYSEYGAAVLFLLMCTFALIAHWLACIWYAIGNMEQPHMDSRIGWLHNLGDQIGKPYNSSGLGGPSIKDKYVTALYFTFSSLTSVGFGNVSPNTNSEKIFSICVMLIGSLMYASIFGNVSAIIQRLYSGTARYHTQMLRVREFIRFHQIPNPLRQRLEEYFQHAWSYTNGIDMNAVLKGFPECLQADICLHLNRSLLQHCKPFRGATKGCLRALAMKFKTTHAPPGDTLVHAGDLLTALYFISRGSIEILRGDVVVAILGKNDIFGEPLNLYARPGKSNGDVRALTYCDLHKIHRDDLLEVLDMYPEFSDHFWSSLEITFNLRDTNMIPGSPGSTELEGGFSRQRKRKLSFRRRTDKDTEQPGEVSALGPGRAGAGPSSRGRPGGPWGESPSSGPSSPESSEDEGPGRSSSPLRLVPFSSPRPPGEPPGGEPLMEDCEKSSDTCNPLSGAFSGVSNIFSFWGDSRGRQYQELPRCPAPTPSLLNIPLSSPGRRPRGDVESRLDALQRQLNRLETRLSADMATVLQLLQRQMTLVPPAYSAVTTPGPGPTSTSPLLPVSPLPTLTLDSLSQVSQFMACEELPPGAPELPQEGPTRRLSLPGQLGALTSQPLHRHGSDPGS

Cavia porcellus [7] = assay: Cardiotoxicity in guinea pig assessed as effect on frequence of heart rate at 5 mg/kg, ip measured after 10 mins by ECG analysis (reference value: 262 to 296 /min); type: toxicity, organism-based; settings: in vivo
Cavia porcellus [8] = assay: Cardiotoxicity in guinea pig assessed as effect on QT interval time at 5 mg/kg, ip measured after 10 mins by ECG analysis (reference value: 127.6 to 131.2 milliseconds); type: toxicity, organism-based; settings: in vivo
[9] = target: 5-hydroxytryptamine receptor 7 (Homo sapiens, UniProt P34969); assay: biochemical
Chain of 5-hydroxytryptamine receptor 7 (P34969 whole entry): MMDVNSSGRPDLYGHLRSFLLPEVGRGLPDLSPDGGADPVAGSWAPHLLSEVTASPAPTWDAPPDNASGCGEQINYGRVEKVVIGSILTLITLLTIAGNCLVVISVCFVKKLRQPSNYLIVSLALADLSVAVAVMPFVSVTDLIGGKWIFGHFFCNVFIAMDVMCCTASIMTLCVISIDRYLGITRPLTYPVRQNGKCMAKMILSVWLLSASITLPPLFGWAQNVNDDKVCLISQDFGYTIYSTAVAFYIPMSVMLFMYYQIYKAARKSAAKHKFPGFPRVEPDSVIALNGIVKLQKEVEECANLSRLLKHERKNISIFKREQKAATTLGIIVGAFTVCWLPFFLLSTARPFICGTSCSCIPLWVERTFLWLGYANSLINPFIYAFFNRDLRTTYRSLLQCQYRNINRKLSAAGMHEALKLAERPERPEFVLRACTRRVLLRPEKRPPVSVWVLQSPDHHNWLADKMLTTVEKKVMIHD
Description: Displacement of [3H]-5-CT from human 5-HT7R expressed in HEK293 cell membranes after 1 hr at 37 degC by microbeta counting method

Cavia porcellus [10] = assay: Cardiotoxicity in guinea pig assessed as effect on frequence of heart rate at 5 mg/kg, ip measured after 30 mins by ECG analysis (reference value: 262 to 296 /min); type: toxicity, organism-based; settings: in vivo, 0.5 h
Cavia porcellus [11] = assay: Cardiotoxicity in guinea pig assessed as effect on QRS interval time at 5 mg/kg, ip measured after 30 mins by ECG analysis (reference value: 26.2 to 31.6 milliseconds); type: toxicity, organism-based; settings: in vivo, 0.5 h
Cavia porcellus [12] = assay: Cardiotoxicity in guinea pig assessed as effect on QT interval time at 5 mg/kg, ip measured after 80 mins by ECG analysis (reference value: 127.6 to 131.2 milliseconds); type: toxicity, organism-based; settings: in vivo
Cavia porcellus [13] = assay: Cardiotoxicity in guinea pig assessed as effect on QT interval time at 5 mg/kg, ip measured after 60 mins by ECG analysis (reference value: 127.6 to 131.2 milliseconds); type: toxicity, organism-based; settings: in vivo, 1 h
Cavia porcellus [14] = assay: Cardiotoxicity in guinea pig assessed as effect on RR interval time at 5 mg/kg, ip measured after 70 mins by ECG analysis (reference value: 208.4 to 238.4 milliseconds); type: toxicity, organism-based; settings: in vivo
Cavia porcellus [15] = assay: Cardiotoxicity in guinea pig assessed as effect on PR interval time at 5 mg/kg, ip measured after 10 mins by ECG analysis (reference value: 58.8 to 63.8 milliseconds); type: toxicity, organism-based; settings: in vivo
Cavia porcellus [16] = assay: Cardiotoxicity in guinea pig assessed as effect on QT interval time at 5 mg/kg, ip measured after 40 mins by ECG analysis (reference value: 127.6 to 131.2 milliseconds); type: toxicity, organism-based; settings: in vivo
[17] = Drug level in Wistar rat brain at 3 mg/kg, ip measured after 15 mins by LC-MS/MS analysis; type: ADME, organism-based; settings: read-out: Drug uptake
Rattus norvegicus [18] = assay: Effect on failure incidence during conditioned avoidance response test in Sprague-Dawley rat at 3 mg/kg, ip administered 60 mins prior to testing; type: ADME, organism-based; settings: in vivo, 1 h
Cavia porcellus [19] = assay: Cardiotoxicity in guinea pig assessed as effect on RR interval time at 5 mg/kg, ip measured after 60 mins by ECG analysis (reference value: 208.4 to 238.4 milliseconds); type: toxicity, organism-based; settings: in vivo, 1 h
Cavia porcellus [20] = assay: Cardiotoxicity in guinea pig assessed as effect on QRS interval time at 5 mg/kg, ip measured after 80 mins by ECG analysis (reference value: 26.2 to 31.6 milliseconds); type: toxicity, organism-based; settings: in vivo
Cytochrome P450 2D6 = Cytochrome P450 2D6 (Homo sapiens, UniProt P10635); assay: Inhibition of human supersome CYP2D6 using bufuralol as substrate assessed as bufuralol 1'-hydroxylation after 30 mins by HPLC-UV detection; type: ADME
Chain of Cytochrome P450 2D6 (P10635 whole entry): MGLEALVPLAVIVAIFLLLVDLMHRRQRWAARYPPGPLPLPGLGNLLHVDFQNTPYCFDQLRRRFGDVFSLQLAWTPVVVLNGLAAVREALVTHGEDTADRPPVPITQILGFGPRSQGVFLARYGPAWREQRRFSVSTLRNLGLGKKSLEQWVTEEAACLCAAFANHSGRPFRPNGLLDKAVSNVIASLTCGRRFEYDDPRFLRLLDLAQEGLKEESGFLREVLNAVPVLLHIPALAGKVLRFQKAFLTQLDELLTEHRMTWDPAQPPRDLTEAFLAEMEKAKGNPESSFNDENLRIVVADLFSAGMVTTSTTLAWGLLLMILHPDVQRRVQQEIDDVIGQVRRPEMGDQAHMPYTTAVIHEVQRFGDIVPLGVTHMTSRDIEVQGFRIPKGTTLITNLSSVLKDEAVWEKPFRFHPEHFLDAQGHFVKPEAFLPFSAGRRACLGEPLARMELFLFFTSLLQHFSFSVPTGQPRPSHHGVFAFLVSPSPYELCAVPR

Cavia porcellus [21] = assay: Cardiotoxicity in guinea pig assessed as effect on QTc interval time at 5 mg/kg, ip measured after 20 mins by ECG analysis (reference value: […] to […] milliseconds); type: toxicity, organism-based; settings: in vivo
Cavia porcellus [22] = assay: Cardiotoxicity in guinea pig assessed as effect on frequence of heart rate at 5 mg/kg, ip measured after 40 mins by ECG analysis (reference value: 262 to 296 /min); type: toxicity, organism-based; settings: in vivo
Cavia porcellus [23] = assay: Cardiotoxicity in guinea pig assessed as effect on QT interval time at 5 mg/kg, ip measured after 70 mins by ECG analysis (reference value: 127.6 to 131.2 milliseconds); type: toxicity, organism-based; settings: in vivo
Cavia porcellus [24] = assay: Cardiotoxicity in guinea pig assessed as effect on RR interval time at 5 mg/kg, ip measured after 30 mins by ECG analysis (reference value: 208.4 to 238.4 milliseconds); type: toxicity, organism-based; settings: in vivo, 0.5 h
[25] = Drug level in Wistar rat brain at 3 mg/kg, ip measured after 60 mins by LC-MS/MS analysis; type: ADME, organism-based; settings: read-out: Drug uptake
[26] = target: 5-hydroxytryptamine receptor 2B (Homo sapiens) (UniProt P41595); assay: Agonist activity at human 5-HT2BR expressed in CHO cells assessed as induction of IP1 accumulation at 10^-6 M after 30 mins by HTRF method; type: functional, cell-based
Chain of 5-hydroxytryptamine receptor 2B (Homo sapiens) (P41595 whole entry): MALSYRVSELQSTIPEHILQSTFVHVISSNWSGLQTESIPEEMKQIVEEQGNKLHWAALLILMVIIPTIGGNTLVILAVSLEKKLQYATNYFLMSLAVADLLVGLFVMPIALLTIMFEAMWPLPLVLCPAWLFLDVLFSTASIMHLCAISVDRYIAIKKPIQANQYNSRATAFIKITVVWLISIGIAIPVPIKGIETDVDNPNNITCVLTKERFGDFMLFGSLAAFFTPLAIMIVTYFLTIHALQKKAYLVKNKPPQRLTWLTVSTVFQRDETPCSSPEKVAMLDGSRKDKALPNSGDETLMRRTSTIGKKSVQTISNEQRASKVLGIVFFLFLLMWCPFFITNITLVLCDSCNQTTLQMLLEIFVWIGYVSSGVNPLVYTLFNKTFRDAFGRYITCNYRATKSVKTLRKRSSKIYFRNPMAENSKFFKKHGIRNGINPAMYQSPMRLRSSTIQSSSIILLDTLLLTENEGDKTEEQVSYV

Cavia porcellus [27] = assay: Cardiotoxicity in guinea pig assessed as effect on QTc interval time at 5 mg/kg, ip measured after 40 mins by ECG analysis (reference value: […] to […] milliseconds); type: toxicity, organism-based; settings: in vivo
Cavia porcellus [28] = assay: Cardiotoxicity in guinea pig assessed as effect on PR interval time at 5 mg/kg, ip measured after 60 mins by ECG analysis (reference value: 58.8 to 63.8 milliseconds); type: toxicity, organism-based; settings: in vivo, 1 h
[29] = target: 5-hydroxytryptamine receptor 2A (Homo sapiens, UniProt P28223); assay: biochemical; type: cell-based, CHO-K1
Chain of 5-hydroxytryptamine receptor 2A (P28223 whole entry): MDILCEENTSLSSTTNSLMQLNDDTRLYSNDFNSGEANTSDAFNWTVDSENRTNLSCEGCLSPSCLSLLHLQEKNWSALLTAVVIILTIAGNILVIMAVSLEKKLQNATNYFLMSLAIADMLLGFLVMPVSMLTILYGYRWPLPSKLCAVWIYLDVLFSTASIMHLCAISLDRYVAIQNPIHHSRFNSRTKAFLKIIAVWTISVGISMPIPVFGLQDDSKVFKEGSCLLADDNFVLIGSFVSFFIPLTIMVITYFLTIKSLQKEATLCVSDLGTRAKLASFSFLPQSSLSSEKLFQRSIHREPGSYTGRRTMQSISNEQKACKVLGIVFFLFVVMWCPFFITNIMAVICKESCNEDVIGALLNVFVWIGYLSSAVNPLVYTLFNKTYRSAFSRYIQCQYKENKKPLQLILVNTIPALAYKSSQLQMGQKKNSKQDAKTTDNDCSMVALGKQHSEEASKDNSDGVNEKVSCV

Cytochrome P450 2C9 = Cytochrome P450 2C9 (Homo sapiens, UniProt P11712); assay: Inhibition of human supersome CYP2C9 using diclofenac as substrate assessed as diclofenac 4'-hydroxylation after 30 mins by HPLC-UV detection; type: ADME
Chain of Cytochrome P450 2C9 (P11712 whole entry): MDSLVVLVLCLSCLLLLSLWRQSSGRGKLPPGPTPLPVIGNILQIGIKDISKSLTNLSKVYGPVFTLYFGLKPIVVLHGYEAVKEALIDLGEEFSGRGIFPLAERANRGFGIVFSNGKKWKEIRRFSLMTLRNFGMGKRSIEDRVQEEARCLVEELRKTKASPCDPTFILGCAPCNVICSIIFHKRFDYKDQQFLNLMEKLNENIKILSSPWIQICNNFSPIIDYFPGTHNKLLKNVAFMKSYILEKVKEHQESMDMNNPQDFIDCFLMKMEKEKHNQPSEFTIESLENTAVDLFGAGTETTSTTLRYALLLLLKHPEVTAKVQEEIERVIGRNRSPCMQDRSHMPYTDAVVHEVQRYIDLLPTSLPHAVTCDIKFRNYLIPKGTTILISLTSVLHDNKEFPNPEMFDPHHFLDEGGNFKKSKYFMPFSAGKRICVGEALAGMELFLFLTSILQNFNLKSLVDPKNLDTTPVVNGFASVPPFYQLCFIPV

Cavia porcellus [30] = assay: Cardiotoxicity in guinea pig assessed as effect on QRS interval time at 5 mg/kg, ip measured after 10 mins by ECG analysis (reference value: 26.2 to 31.6 milliseconds); type: toxicity, organism-based; settings: in vivo
Rattus norvegicus [31] = species on record: Rattus norvegicus; assay: animal or person; settings: Sprague-Dawley, ip, read-out: MED
Description: Reversal of ketamine-induced working social withdrawal in ip dosed Sprague-Dawley rat pretreated for 60 mins followed by ketamine administration

Cavia porcellus [32] = assay: Cardiotoxicity in guinea pig assessed as effect on frequence of heart rate at 5 mg/kg, ip measured after 70 mins by ECG analysis (reference value: 262 to 296 /min); type: toxicity, organism-based; settings: in vivo
Cavia porcellus [33] = assay: Cardiotoxicity in guinea pig assessed as effect on PR interval time at 5 mg/kg, ip measured after 80 mins by ECG analysis (reference value: 58.8 to 63.8 milliseconds); type: toxicity, organism-based; settings: in vivo

| SMILES | Time (Cavia porcellus [1]) | Activity (Rattus norvegicus [2]) | Time (Cavia porcellus [3]) | Time (Cavia porcellus [4]) | Time (Cavia porcellus [5]) | inhibition (INH) [6] | Activity (Cavia porcellus [7]) | Time (Cavia porcellus [8]) | Ki [9] | Activity (Cavia porcellus [10]) | Time (Cavia porcellus [11]) | Time (Cavia porcellus [12]) | Time (Cavia porcellus [13]) | Time (Cavia porcellus [14]) | Time (Cavia porcellus [15]) | Time (Cavia porcellus [16]) | concentration at 0.25 h [17] | Activity (Rattus norvegicus [18]) | Time (Cavia porcellus [19]) | Time (Cavia porcellus [20]) | also measured |
| --- | --- | --- | --- | --- | --- | --- | --- | --- | --- | --- | --- | --- | --- | --- | --- | --- | --- | --- | --- | --- | --- |
| O=S(=O)(c1cncc2ccccc12)N1CCC[C@H]1CCN1CCN(c2cccc3sccc23)CC1 | 262.8 ms | Non-Toxic | 266.6 ms | 267 ms | 268 ms | Not Active | 263 min⁻¹ | 127.4 ms | 19 nM | 264 min⁻¹ | 32.4 ms | 123.6 ms | 124.6 ms | 214.8 ms | 62.8 ms | 125.2 ms | 317 nM | Non-Toxic | 219.8 ms | 32 ms | IC50 (Cytochrome P450 2D6): > 100 µM; Time (Cavia porcellus [21]): 265 ms; Activity (Cavia porcellus [22]): 263 min⁻¹; Time (Cavia porcellus [23]): 124 ms; Time (Cavia porcellus [24]): 235.2 ms; concentration at 1 h [25]: 89.3 nM; inhibition [26]: 14%; Time (Cavia porcellus [27]): 263.4 ms; Time (Cavia porcellus [28]): 63.4 ms; Ki [29]: 9 nM; IC50 (Cytochrome P450 2C9): > 100 µM; Time (Cavia porcellus [30]): 30.8 ms; minimal effective dose (Rattus norvegicus [31]): 1 mg/kg; Activity (Cavia porcellus [32]): 271 min⁻¹; Time (Cavia porcellus [33]): 63.8 ms |
| O=S(=O)(c1cncc2ccccc12)N1CCC[C@H]1CCN1CCN(c2nsc3ccccc23)CC1 | 280.6 ms | Non-Toxic | 275.8 ms | 272.2 ms | 273.4 ms | Active | 304 min⁻¹ | 121.8 ms | 9 nM | 287 min⁻¹ | 26.8 ms | 125.6 ms | 125.8 ms | 211.4 ms | 59 ms | 125.4 ms | 153 nM | Non-Toxic | 210.4 ms | 26 ms | IC50 (Cytochrome P450 2D6): > 100 µM; Time (Cavia porcellus [21]): 269.6 ms; Activity (Cavia porcellus [22]): 288 min⁻¹; Time (Cavia porcellus [23]): 125.4 ms; Time (Cavia porcellus [24]): 212.6 ms; concentration at 1 h [25]: 49.4 nM; Kb [26]: 3 nM; Time (Cavia porcellus [27]): 274.2 ms; Time (Cavia porcellus [28]): 63.2 ms; Ki [29]: 13 nM; IC50 (Cytochrome P450 2C9): 100 µM; Time (Cavia porcellus [30]): 25.4 ms; minimal effective dose (Rattus norvegicus [31]): 3 mg/kg; Activity (Cavia porcellus [32]): 287 min⁻¹; Time (Cavia porcellus [33]): 61.8 ms |
